Bridge positions count the residues as written; N and C are the ends. Square brackets hold non-standard residues; d marks the D form. Peptide text beside a SMILES is read from it. * marks the point of attachment. X19 = N#Cc1ccc(-c2cccc(C(=O)*)c2)nc1; X9 = N#Cc1ccc(-c2cc(C(=O)*)ccc2F)nc1; X25 = O=C(c1ccc(Cl)c(-c2ccccn2)c1)*; X16 = O=C(c1ccc(-c2ccccc2)nc1)*; X14 = CC(C)c1cccc(C(=O)*)c1; Dab = NCC[C@H](N)C(=O)O; Dap = NC[C@H](N)C(=O)O
Tests used:
[1] = test system: PA-1646, polymyxin-resistant clinical isolate of Pseudomonas aeruginosa; assay type: cell-based; details: PA-1646, polymyxin-resistant clinical isolate of
Procedure: (§1) Minimum bactericidal concentration (MBC, mg/L), minimum inhibitory concentration (MIC, mg/L), and human renal proximal tubule epithelial cell line cytotoxicity concentration 50% (hRPTEC, TC50, micromolar) for compounds of Formula I are listed in Table 2. The compounds of Formula I were tested as the corresponding trifluoroacetate salt except for Example 1 which was tested as the sulfate salt. For Table 2 below: PMB=polymyxin B as the sulfate salt (Bedford Laboratories, pharmaceutical grade); PMB1=polymyxin B1 as the trifluoroacetate salt; Nona=polymyxin B nonapeptide as the trifluoroacetate salt. PMB1 and Nona were prepared using the solid phase methodology described in the experimental section herein.
(§2) The in vitro antibacterial activity of compounds of Formula I was evaluated by MIC testing according to Clinical and Laboratory Standards Institute (CLSI). See: Clinical and Laboratory Standards Institute. Methods for Dilution Antimicrobial Susceptibility Tests for Bacteria that Grow Aerobically; Approved Standard-Eighth Edition. CLSI document M7-A8 [ISBN 1-56238-689-1]. Clinical and Laboratory Standards Institute, 940 West Valley Road, Suite 1400, Wayne, Pa. 19087-1898 USA, 2006; also Clinical and Laboratory Standards Institute. Performance Standards for Antimicrobial Susceptibility Testing; Twentieth Informational Supplement. CLSI document M100-S20 [ISBN 1-56238-716-2]. Clinical and Laboratory Standards Institute. Methods for Determining Bactericidal Activity of Antimicrobial Agents; Approved Guideline. CLSI document M26-A (ISBN 1-56238-384-1). CLSI, 940 West Valley Road, Suite 1400, Wayne, Pa. 19087-1898 USA, 1999.
PA-1646 is a polymyxin-resistant clinical isolate of Pseudomonas aeruginosa obtained from JMI labs (www.jmilabs.com);

[2] = test system: AB-1649, polymyxin-resistant clinical isolate of Acinetobacter baumannii; assay type: cell-based; details: AB-1649, polymyxin-resistant clinical isolate of
Procedure: as §1, §2
AB-1649 is a polymyxin-resistant clinical isolate of Acinetobacter baumannii obtained from JMI labs (www.jmilabs.com);

[3] = test system: AB-3167, clinical isolate of Acinetobacter baumannii; assay type: cell-based; details: AB-3167, clinical isolate of
Procedure: as §1, §2
(§3) The MIC determination is a standard laboratory method for evaluating the antibacterial activity of a compound. The MIC represents the lowest drug concentration that inhibits visible growth of bacteria following overnight incubation. […] Typically, the drug concentration range is broken down into 2-fold increments (e.g. 0.06 mg/L, 0.12 mg/L, 0.25 mg/L, 0.50 mg/L, 1.0 mg/L, etc.) and the various drug concentrations are all individually incubated overnight with approximately the same number of bacteria. The MIC is then determined by visually inspecting the drug effect at each concentration, and identifying the lowest drug concentration that has inhibited bacterial growth as compared to the drug free control. Typically, bacteria continue to grow at drug concentrations lower than the MIC and don't grow at concentrations at and above the MIC.
(§4) The MIC values described in Table 2 below were derived from assays wherein each test compound was evaluated in duplicate. In cases where the duplicate values varied by 0-2-fold, the lower of the two values was reported below. Generally speaking, if the duplicate values varied by more than 2-fold, the assay was considered non-valid and was repeated until the variation between duplicate runs was ≦2-fold. In line with the CLSI guidelines referred to above, both control organisms and reference compounds were utilized in each MIC assay to provide proper quality control. MIC values generated with these control organisms and reference compounds were required to fall within a defined range for the assay to be considered valid and be included herein. Those skilled in the art will recognize that MIC values can and do vary from experiment to experiment. Generally speaking, it should be recognized that MIC values often vary +/−2-fold from experiment to experiment. While a single MIC is reported for each compound and each microorganism, the reader should not conclude that each compound was only tested once. Several of the compounds were subjected to multiple tests. The data reported in Table 2 is reflective of the compounds relative activity and different MICs may have been generated on these occasions in line with the guidelines described above.
(§5) The following bacterial strains were used in these MIC determinations: […]

[4] = test system: PA-1646, polymyxin-resistant clinical isolate of Pseudomonas aeruginosa; assay type: cell-based; details: PA-1646, polymyxin-resistant clinical isolate of; remark: listed apart in the source
Procedure: as §1, §2, §3, §4, §5

[5] = test system: Pseudomonas aeruginosa strain PA01; assay type: cell-based; details: strain
Procedure: as §1, §2, §3, §4, §5

[6] = test system: AB-1649, polymyxin-resistant clinical isolate of Acinetobacter baumannii; assay type: cell-based; details: AB-1649, polymyxin-resistant clinical isolate of; remark: listed apart in the source
Procedure: as §1, §2, §3, §4, §5

[7] = Cytotoxicity assay (LDH release), hRPTEC; assay type: cell-based, human; details: human
Procedure: as §1
Human Renal Proximal Tubule Epithelial cells (hRPTEC) were obtained from Lonza (Walkersville, Md., USA) and cultured in REGM (Renal Epithelial Cell Basal Medium supplemented with human epithelial growth factor, hydrocortisone, epinephrine, insulin, triiodothyronine, transferrin, gentamycin/amphotericin-B, and fetal bovine serum). The hRPTEC cells were seeded into 96-well plates and incubated at 37° C. in 5% CO2. Following a growth period of 72 hours, cells were treated with compounds at 100, 67, 44, 30, 20 and 13 micromolar for 24 hours at 37° C. in 5% CO2. The cell supernatant was then harvested for determination of LDH (lactate dehydrogenase) production. The Cytotoxicity Detection Kit from Roche was used for the measurement of LDH activity released from damaged cells. The Toxic Concentration 50% (TC50, micromolar) values were determined for each compound and compared to the control compounds (polymyxin B was used as a positive control and polymyxin B nonapepetide was used as negative control).

[8] = test system: EC-1, mouse virulent strain of Escherichia coli; assay type: cell-based; details: E. coli EC-1; overnight incubation, lower of duplicate values; trifluoroacetate salt (Example 1 and PMB sulfate)
Procedure: as §1, §2, §3, §4
The following bacterial strains were used in these MIC determinations:
EC-1 is a mouse virulent strain of Escherichia coli.

SMILES | PA-1646 MBC [1] | AB-1649 MBC [2] | AB-3167 MIC [3] | PA-1646 MIC [4] | PA01 MIC [5] | AB-1649 MIC [6] | CC50 at 24 h [7] | EC-1 MIC [8]
CC(C)C[C@@H]1NC(=O)[C@@H](Cc2ccccc2)NC(=O)[C@H](CCN)NC(=O)[C@@H](NC(=O)[C@H](CN)NC(=O)[C@@H](NC(=O)[C@H](CCN)NC(=O)c2ccc(F)c(-c3ccc(C#N)cn3)c2)[C@@H](C)O)CCNC(=O)[C@H]([C@@H](C)O)NC(=O)[C@H](CCN)NC(=O)[C@H](CCN)NC1=O [Example 24] (X9-[Dab]T[Dap][Dab][Dab][dF]L[Dab][Dab]T; lactam 4-C) | 16 µg/mL | 8 µg/mL | 0.5 µg/mL | 4 µg/mL | 1 µg/mL | 4 µg/mL | > 100 µM | 0.25 µg/mL
CC(C)C[C@@H]1NC(=O)[C@@H](Cc2ccccc2)NC(=O)[C@H](CCN)NC(=O)[C@@H](NC(=O)[C@H](CN)NC(=O)[C@@H](NC(=O)[C@H](CCN)NC(=O)c2cccc(C(C)C)c2)[C@@H](C)O)CCNC(=O)[C@H]([C@@H](C)O)NC(=O)[C@H](CCN)NC(=O)[C@H](CCN)NC1=O [Example 25] (X14-[Dab]T[Dap][Dab][Dab][dF]L[Dab][Dab]T; lactam 4-C) | 16 µg/mL | 4 µg/mL | 0.25 µg/mL | 4 µg/mL | 1 µg/mL | 4 µg/mL | 88 µM | 0.25 µg/mL
CC(C)C[C@@H]1NC(=O)[C@@H](Cc2ccccc2)NC(=O)[C@H](CCN)NC(=O)[C@@H](NC(=O)[C@H](CN)NC(=O)[C@@H](NC(=O)[C@H](CCN)NC(=O)c2cccc(-c3ccc(C#N)cn3)c2)[C@@H](C)O)CCNC(=O)[C@H]([C@@H](C)O)NC(=O)[C@H](CCN)NC(=O)[C@H](CCN)NC1=O [Example 26] (X19-[Dab]T[Dap][Dab][Dab][dF]L[Dab][Dab]T; lactam 4-C) | 8 µg/mL | 4 µg/mL | 1 µg/mL | 4 µg/mL | 1 µg/mL | 4 µg/mL | 77 µM | 0.25 µg/mL
CC(C)C[C@@H]1NC(=O)[C@@H](Cc2ccccc2)NC(=O)[C@H](CCN)NC(=O)[C@@H](NC(=O)[C@H](CN)NC(=O)[C@@H](NC(=O)[C@H](CCN)NC(=O)c2ccc(-c3ccccc3)nc2)[C@@H](C)O)CCNC(=O)[C@H]([C@@H](C)O)NC(=O)[C@H](CCN)NC(=O)[C@H](CCN)NC1=O [Example 27] (X16-[Dab]T[Dap][Dab][Dab][dF]L[Dab][Dab]T; lactam 4-C) | 4 µg/mL | 4 µg/mL | 0.25 µg/mL | 2 µg/mL | 0.5 µg/mL | 4 µg/mL | 73 µM | 0.125 µg/mL
CC(C)C[C@@H]1NC(=O)[C@@H](Cc2ccccc2)NC(=O)[C@H](CCN)NC(=O)[C@@H](NC(=O)[C@H](CN)NC(=O)[C@@H](NC(=O)[C@H](CCN)NC(=O)c2ccc(Cl)c(-c3ccccn3)c2)[C@@H](C)O)CCNC(=O)[C@H]([C@@H](C)O)NC(=O)[C@H](CCN)NC(=O)[C@H](CCN)NC1=O [Example 28] (X25-[Dab]T[Dap][Dab][Dab][dF]L[Dab][Dab]T; lactam 4-C) | 16 µg/mL | 4 µg/mL | 0.25 µg/mL | 4 µg/mL | 1 µg/mL | 4 µg/mL | 72 µM | 0.25 µg/mL

Source: patent publication US20120316105A1, “Polymyxin Derivates Useful As Antibacterial Agents” (priority 2011, published 2012)
